Experimental data from US7507739B2, “6-[(substituted)phenyl]triazolopyrimidines as anticancer agents” (Wyeth, priority 2003, dated 2009).
Marks after values point to notes of the source that are not given here.

Assays:
HeLa cells = test: Cell cycle analysis with HeLa cells; assay type: cell-based, human; conditions: 18 hr
Method: HeLa cells are harvested by trypsinization, washed, counted and distributed to wells of 12-well plates at 125,000 cells per well in 2 mL medium. Cells are cultured overnight. […] Cells are continued in culture for 18 hr after compound addition, then cells in each well are harvested (taking care to recover both adherent and non-adherent cells) and processed using the CycleTEST PLUS kit (Becton Dickinson Immunocytometry Systems, San Jose, Calif.). Flow cytometry is done with a FACSort instrument (Becton Dickinson).
This procedure measures the percentages of cells in a population that are in the G1, S, and G2/M phases of the cell cycle. It utilizes staining of cell nuclei with propidium iodide and analysis by flow cytometry.

LOX Human Melanoma = test: Human tumor xenograft test, LOX; assay type: in vivo, athymic mice; conditions: for tumor growth inhibition (activity call): LOX melanoma; for T/C on day 0 / T/C on day 7 / T/C on day 13: LOX, days 1, 5, 9, 13
Method: The ability of compounds of this invention to inhibit tumor growth in animals is studied in the athymic mouse xenograft standard pharmacological test. Female nu/nu mice in an outbred albino background are obtained from Charles River Laboratories (Wilmington, Mass.). Animals are injected subcutaneously on the flank with the desired tumor cell suspension. Several days later, mice with tumors of approximately 150 mm^3 are selected from those injected (staged) and randomly distributed into groups of 5-10. The day of staging is called day 0. Compounds of the invention, usually formulated in saline (exceptions are noted in tables), are administered to animals by intravenous injection or oral gavage on various schedules starting on day 0 or 1, as noted in the tables. The control group in each experiment is dosed with vehicle on the same schedule. Tumor size is measured every 3-7 days with calipers in two orthogonal dimensions, and tumor volume is calculated from the formula volume=[(length×width^2)/2].
Tumor/Control (T/C) is obtained by dividing the mean tumor volume of the treated group by the mean tumor volume of the control group on each measurement day. A treatment dose is defined as active if it produced a statistically significant T/C of 0.50 or less. A p value≦0.05, determined by one-side Student's t-test, is required for statistical significance. A treatment dose is defined as toxic if more than 10% of the animals died from a compound-related toxicity.

[1] = 1 mg/kg intravenously on days 1, 5, 9, and 13
[2] = 6 and 3 mg/kg intravenously on days 1, 5, 9, and 13

CN(C)CCCOc1cc(F)c(-c2c(Cl)nc3ncnn3c2NCC(F)(F)F)c(F)c1.Cl [Example 4a, 5-Chloro-6-{4-[3-(dimethylamino)propoxy]-2,6-difluorophenyl}-N-(2,2,2-trifluoroethyl)[1,2,4]triazolo[1,5-a]pyrimidin-7-amine Hydrogen chloride Salt]
Percent in Cell Cycle Phase >4N (HeLa cells; 20 nM): 2% | Percent in Cell Cycle Phase Apop (HeLa cells; 20 nM): 6% | Percent in Cell Cycle Phase G1 (HeLa cells; 20 nM): 60% | Percent in Cell Cycle Phase G2/M (HeLa cells; 20 nM): 15% | Percent in Cell Cycle Phase S (HeLa cells; 20 nM): 17% | Percent in Cell Cycle Phase >4N (HeLa cells; 30 nM): 1% | Percent in Cell Cycle Phase Apop (HeLa cells; 30 nM): 44% | Percent in Cell Cycle Phase G1 (HeLa cells; 30 nM): 29% | Percent in Cell Cycle Phase G2/M (HeLa cells; 30 nM): 15% | Percent in Cell Cycle Phase S (HeLa cells; 30 nM): 12% | Percent in Cell Cycle Phase >4N (HeLa cells; 40 nM): 2% | Percent in Cell Cycle Phase Apop (HeLa cells; 40 nM): 65% | Percent in Cell Cycle Phase G1 (HeLa cells; 40 nM): 8% | Percent in Cell Cycle Phase G2/M (HeLa cells; 40 nM): 17% | Percent in Cell Cycle Phase S (HeLa cells; 40 nM): 8% | Percent in Cell Cycle Phase >4N (HeLa cells; 50 nM): 2% | Percent in Cell Cycle Phase Apop (HeLa cells; 50 nM): 54% | Percent in Cell Cycle Phase G1 (HeLa cells; 50 nM): 6% | Percent in Cell Cycle Phase G2/M (HeLa cells; 50 nM): 29% | Percent in Cell Cycle Phase S (HeLa cells; 50 nM): 9% | Percent in Cell Cycle Phase >4N (HeLa cells; 60 nM): 2% | Percent in Cell Cycle Phase Apop (HeLa cells; 60 nM): 64% | Percent in Cell Cycle Phase G1 (HeLa cells; 60 nM): 13% | Percent in Cell Cycle Phase G2/M (HeLa cells; 60 nM): 15% | Percent in Cell Cycle Phase S (HeLa cells; 60 nM): 8% | Percent in Cell Cycle Phase >4N (HeLa cells; 70 nM): 4% | Percent in Cell Cycle Phase Apop (HeLa cells; 70 nM): 25% | Percent in Cell Cycle Phase G1 (HeLa cells; 70 nM): 3% | Percent in Cell Cycle Phase G2/M (HeLa cells; 70 nM): 60% | Percent in Cell Cycle Phase S (HeLa cells; 70 nM): 8% | Percent in Cell Cycle Phase >4N (HeLa cells; 80 nM): 5% | Percent in Cell Cycle Phase Apop (HeLa cells; 80 nM): 20% | Percent in Cell Cycle Phase G1 (HeLa cells; 80 nM): 5% | Percent in Cell Cycle Phase G2/M (HeLa cells; 80 nM): 63% | Percent in Cell Cycle Phase S (HeLa cells; 80 nM): 7% | Percent in Cell Cycle Phase >4N (HeLa cells; 90 nM): 5% | Percent in Cell Cycle Phase Apop (HeLa cells; 90 nM): 22% | Percent in Cell Cycle Phase G1 (HeLa cells; 90 nM): 5% | Percent in Cell Cycle Phase G2/M (HeLa cells; 90 nM): 59% | Percent in Cell Cycle Phase S (HeLa cells; 90 nM): 10% | Percent in Cell Cycle Phase >4N (HeLa cells; 100 nM): 5% | Percent in Cell Cycle Phase Apop (HeLa cells; 100 nM): 23% | Percent in Cell Cycle Phase G1 (HeLa cells; 100 nM): 7% | Percent in Cell Cycle Phase G2/M (HeLa cells; 100 nM): 57% | Percent in Cell Cycle Phase S (HeLa cells; 100 nM): 9% | Percent in Cell Cycle Phase >4N (HeLa cells; 110 nM): 5% | Percent in Cell Cycle Phase Apop (HeLa cells; 110 nM): 23% | Percent in Cell Cycle Phase G1 (HeLa cells; 110 nM): 6% | Percent in Cell Cycle Phase G2/M (HeLa cells; 110 nM): 56% | Percent in Cell Cycle Phase S (HeLa cells; 110 nM): 10% | Percent in Cell Cycle Phase >4N (HeLa cells; 120 nM): 4% | Percent in Cell Cycle Phase Apop (HeLa cells; 120 nM): 27% | Percent in Cell Cycle Phase G1 (HeLa cells; 120 nM): 7% | Percent in Cell Cycle Phase G2/M (HeLa cells; 120 nM): 53% | Percent in Cell Cycle Phase S (HeLa cells; 120 nM): 10% | tumor growth inhibition (activity call) (LOX Human Melanoma; [1]): not at 1 mg/kg | tumor growth inhibition (activity call) (LOX Human Melanoma; [2]): active | T/C on day 0 (LOX Human Melanoma; 1 mg/kg IV): 1.00 | T/C on day 7 (LOX Human Melanoma; 1 mg/kg IV): 0.80 | T/C on day 13 (LOX Human Melanoma; 1 mg/kg IV): 0.79 | T/C on day 0 (LOX Human Melanoma; 3 mg/kg IV): 1.00 | T/C on day 7 (LOX Human Melanoma; 3 mg/kg IV): 0.20** | T/C on day 13 (LOX Human Melanoma; 3 mg/kg IV): 0.19** | T/C on day 0 (LOX Human Melanoma; 6 mg/kg IV): 1.00 | T/C on day 7 (LOX Human Melanoma; 6 mg/kg IV): 0.21** | T/C on day 13 (LOX Human Melanoma; 6 mg/kg IV): 0.14**

C[C@H](Nc1c(-c2c(F)cc(OCCCN(C)C)cc2F)c(Cl)nc2ncnn12)C(F)(F)F.Cl [Example 1a, 5-chloro-6-{4-[3-(dimethylamino)propoxy]-2,6-difluorophenyl}-N-[(1S)-2,2,2-trifluoro-1-methylethyl][1,2,4]triazolo[1,5-a]pyrimidin-7-amine hydrogen chloride Salt]
Percent in Cell Cycle Phase >4N (HeLa cells; 20 nM): 2% | Percent in Cell Cycle Phase Apop (HeLa cells; 20 nM): 13% | Percent in Cell Cycle Phase G1 (HeLa cells; 20 nM): 54% | Percent in Cell Cycle Phase G2/M (HeLa cells; 20 nM): 14% | Percent in Cell Cycle Phase S (HeLa cells; 20 nM): 18% | Percent in Cell Cycle Phase >4N (HeLa cells; 30 nM): 1% | Percent in Cell Cycle Phase Apop (HeLa cells; 30 nM): 38% | Percent in Cell Cycle Phase G1 (HeLa cells; 30 nM): 35% | Percent in Cell Cycle Phase G2/M (HeLa cells; 30 nM): 14% | Percent in Cell Cycle Phase S (HeLa cells; 30 nM): 12% | Percent in Cell Cycle Phase >4N (HeLa cells; 40 nM): 1% | Percent in Cell Cycle Phase Apop (HeLa cells; 40 nM): 71% | Percent in Cell Cycle Phase G1 (HeLa cells; 40 nM): 7% | Percent in Cell Cycle Phase G2/M (HeLa cells; 40 nM): 13% | Percent in Cell Cycle Phase S (HeLa cells; 40 nM): 8% | Percent in Cell Cycle Phase Apop (HeLa cells; 40 nM, listed as example 1a): about 70% | Percent in Cell Cycle Phase G2/M (HeLa cells; 40 nM, listed as example 1a): no increase | Percent in Cell Cycle Phase >4N (HeLa cells; 50 nM): 2% | Percent in Cell Cycle Phase Apop (HeLa cells; 50 nM): 63% | Percent in Cell Cycle Phase G1 (HeLa cells; 50 nM): 6% | Percent in Cell Cycle Phase G2/M (HeLa cells; 50 nM): 20% | Percent in Cell Cycle Phase S (HeLa cells; 50 nM): 9% | Percent in Cell Cycle Phase >4N (HeLa cells; 60 nM): 3% | Percent in Cell Cycle Phase Apop (HeLa cells; 60 nM): 52% | Percent in Cell Cycle Phase G1 (HeLa cells; 60 nM): 5% | Percent in Cell Cycle Phase G2/M (HeLa cells; 60 nM): 32% | Percent in Cell Cycle Phase S (HeLa cells; 60 nM): 10% | Percent in Cell Cycle Phase >4N (HeLa cells; 70 nM): 4% | Percent in Cell Cycle Phase Apop (HeLa cells; 70 nM): 26% | Percent in Cell Cycle Phase G1 (HeLa cells; 70 nM): 3% | Percent in Cell Cycle Phase G2/M (HeLa cells; 70 nM): 57% | Percent in Cell Cycle Phase S (HeLa cells; 70 nM): 9% | Percent in Cell Cycle Phase >4N (HeLa cells; 80 nM): 5% | Percent in Cell Cycle Phase Apop (HeLa cells; 80 nM): 24% | Percent in Cell Cycle Phase G1 (HeLa cells; 80 nM): 4% | Percent in Cell Cycle Phase G2/M (HeLa cells; 80 nM): 58% | Percent in Cell Cycle Phase S (HeLa cells; 80 nM): 9% | Percent in Cell Cycle Phase >4N (HeLa cells; 90 nM): 6% | Percent in Cell Cycle Phase Apop (HeLa cells; 90 nM): 22% | Percent in Cell Cycle Phase G1 (HeLa cells; 90 nM): 5% | Percent in Cell Cycle Phase G2/M (HeLa cells; 90 nM): 58% | Percent in Cell Cycle Phase S (HeLa cells; 90 nM): 10% | Percent in Cell Cycle Phase >4N (HeLa cells; 100 nM): 5% | Percent in Cell Cycle Phase Apop (HeLa cells; 100 nM): 24% | Percent in Cell Cycle Phase G1 (HeLa cells; 100 nM): 4% | Percent in Cell Cycle Phase G2/M (HeLa cells; 100 nM): 58% | Percent in Cell Cycle Phase S (HeLa cells; 100 nM): 10% | Percent in Cell Cycle Phase >4N (HeLa cells; 110 nM): 5% | Percent in Cell Cycle Phase Apop (HeLa cells; 110 nM): 24% | Percent in Cell Cycle Phase G1 (HeLa cells; 110 nM): 6% | Percent in Cell Cycle Phase G2/M (HeLa cells; 110 nM): 53% | Percent in Cell Cycle Phase S (HeLa cells; 110 nM): 13% | Percent in Cell Cycle Phase >4N (HeLa cells; 120 nM): 5% | Percent in Cell Cycle Phase Apop (HeLa cells; 120 nM): 28% | Percent in Cell Cycle Phase G1 (HeLa cells; 120 nM): 6% | Percent in Cell Cycle Phase G2/M (HeLa cells; 120 nM): 48% | Percent in Cell Cycle Phase S (HeLa cells; 120 nM): 14% | tumor growth inhibition (activity call) (LOX Human Melanoma; [1]): not at 1 mg/kg | tumor growth inhibition (activity call) (LOX Human Melanoma; [2]): active | T/C on day 0 (LOX Human Melanoma; 1 mg/kg IV): 1.00 | T/C on day 7 (LOX Human Melanoma; 1 mg/kg IV): 0.80 | T/C on day 13 (LOX Human Melanoma; 1 mg/kg IV): 1.02 | T/C on day 0 (LOX Human Melanoma; 3 mg/kg IV): 1.00 | T/C on day 7 (LOX Human Melanoma; 3 mg/kg IV): 0.13** | T/C on day 13 (LOX Human Melanoma; 3 mg/kg IV): 0.17* | T/C on day 0 (LOX Human Melanoma; 6 mg/kg IV): 1.00 | T/C on day 7 (LOX Human Melanoma; 6 mg/kg IV): 0.12** | T/C on day 13 (LOX Human Melanoma; 6 mg/kg IV): 0.07**
